Where only a bound is given, the exact number is not on record here.

T1 sequence (P08238 whole entry): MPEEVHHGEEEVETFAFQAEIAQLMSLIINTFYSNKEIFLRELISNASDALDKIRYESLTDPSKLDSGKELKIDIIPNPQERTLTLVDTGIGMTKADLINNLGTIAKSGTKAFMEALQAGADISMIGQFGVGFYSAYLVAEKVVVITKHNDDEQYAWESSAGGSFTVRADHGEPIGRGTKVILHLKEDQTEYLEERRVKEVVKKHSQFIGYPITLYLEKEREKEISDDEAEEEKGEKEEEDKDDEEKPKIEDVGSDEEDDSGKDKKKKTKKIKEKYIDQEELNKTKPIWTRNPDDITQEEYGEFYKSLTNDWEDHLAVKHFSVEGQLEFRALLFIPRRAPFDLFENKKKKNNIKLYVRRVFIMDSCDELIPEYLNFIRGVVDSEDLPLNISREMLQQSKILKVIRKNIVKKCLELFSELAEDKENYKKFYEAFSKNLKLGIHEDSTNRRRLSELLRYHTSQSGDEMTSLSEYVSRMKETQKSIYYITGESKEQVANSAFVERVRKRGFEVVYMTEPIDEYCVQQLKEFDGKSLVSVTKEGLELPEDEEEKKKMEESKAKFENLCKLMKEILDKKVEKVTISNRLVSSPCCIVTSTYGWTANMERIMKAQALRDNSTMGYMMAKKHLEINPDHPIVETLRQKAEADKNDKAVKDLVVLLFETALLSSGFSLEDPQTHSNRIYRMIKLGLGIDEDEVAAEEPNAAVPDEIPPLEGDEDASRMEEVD

One experiment addresses T1, Human full-length Hsp90 (Homo sapiens, UniProt P08238).
T1 construct: E. coli expressed human full-length HSP90 protein, purified >95%; made in house; host or cells: E. coli
Briefly: Fluorescence polarization assay (competitive binding to HSP90, probe RBT0045864-FAM).
Settings: not given
The procedure, abridged:
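Competitive fluorescence polarization: test compound displaces FAM-labelled probe RBT0045864-FAM (200 nM working solution) from HSP90 after equilibration, and anisotropy change is measured. Compounds serially diluted; BSA-containing buffer; standard compound as positive control; Z′ from zero and positive controls.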
`CCN(CC)CCOc1cc(-c2nc(N)nc3sc(C(=O)NC4CC4)cc23)c(Cl)cc1Cl` [Example 251] returned an IC50 of less than 10 µM.

In turn, `CCNC(=O)c1cc2c(-c3cc(OCCN(C)C)c(Cl)cc3Cl)nc(N)nc2s1` [Example 254] displayed a half-inhibitory concentration (IC50) of less than 10 µM.

In turn, `CCNC(=O)c1cc2c(-c3cc(OCCN4CCC(F)(F)CC4)c(Cl)cc3Cl)nc(N)nc2s1` [Example 250] returned a half-inhibitory concentration (IC50) of less than 10 µM.

The experiment is the same for the next values; noted with them: fluorescence polarization assay, activity range; read-out: Hsp90 FP IC50.
As for `CCOC(=O)c1cc2c(-c3ccc(C(F)(F)F)cc3)nc(N)nc2s1` [Example 2, 2-Amino-4-(4-trifluoromethyl-phenyl)-thieno[2,3-d]pyrimidine-6-carboxylic acid ethyl ester], the half-maximal inhibitory concentration (IC50) was more than 10 µM.

For the molecule `NC(=O)[C@H](Cc1ccc(O)cc1)NC(=O)c1cc2c(-c3ccc(Cl)cc3Cl)nc(N)nc2s1` [Example 163], the IC50 is less than 10 µM.

As for `CCOC(=O)c1cc2c(NC3CCCCC3)nc(N)nc2s1` [Example 24], the half-maximal inhibitory concentration (IC50) was more than 10 µM.

In the case of `Nc1nc(-c2ccc(Cl)cc2Cl)c2cc(C(=O)NC3CC3)sc2n1` [Example 155], the IC50 was less than 10 µM.

As to `CCNC(=O)c1cc2c(-c3cc(OCC(C)CN(C)C)c(Cl)cc3Cl)nc(N)nc2s1` (stereo not shown) [Example 256], the IC50 is less than 10 µM.

`CCOC(=O)c1cc2c(-c3ccc(C)cc3Cl)nc(N)nc2s1` [Example 79]: the IC50 is less than 10 µM.

`Nc1nc(-c2ccc(Cl)cc2Cl)c2cc(C(=O)NCCCn3ccnc3)sc2n1` [Example 146]: the IC50 was less than 10 µM.

For the molecule `CCOC(=O)c1cc2c(-c3ccc(C)cc3C)nc(N)nc2s1` [Example 34], the IC50 is less than 10 µM.

Turning to `CCOC(=O)c1cc2c(-c3cc(C=O)ccc3C)nc(N)nc2s1` [Example 196, 2-Amino-4-(5-formyl-2-methyl-phenyl)-thieno[2,3-d]pyrimidine-6-carboxylic acid ethyl ester], the IC50 is less than 10 µM.

As for `CCNC(=O)c1cc2c(-c3cc(CNCc4ccc(S(N)(=O)=O)cc4)ccc3C)nc(N)nc2s1` [Example 207], the IC50 is less than 10 µM.

With `CCNC(=O)c1cc2c(C(C)c3ccccc3)nc(N)nc2s1` (stereo not shown) [Example 287], the IC50 was less than 10 µM.

Turning to `CCNC(=O)c1cc2c(-c3cc(O)c(Cl)cc3Cl)nc(N)nc2s1` [Example 240], the half-maximal inhibitory concentration (IC50) is less than 10 µM.

As to `NC(=O)CCNC(=O)c1cc2c(-c3ccc(Cl)cc3Cl)nc(N)nc2s1` [Example 131], the IC50 is less than 10 µM.

In the case of `CCOC(=O)c1cc2c(-c3ncccc3C)nc(N)nc2s1` [Example 115], the IC50 was less than 10 µM.

For the molecule `CCNC(=O)c1cc2c(-c3cc(C)c(Br)cc3C)nc(N)nc2s1` [Example 149], the concentration for half-maximal inhibition (IC50) is less than 10 µM.

On to `CCOC(=O)c1cc2c(C(=O)c3ccccc3F)nc(N)nc2s1` [Example 301], for which the IC50 was less than 10 µM.

For `CCC(C)NC(=O)c1cc2c(-c3ccccc3)nc(N)nc2s1` (stereo not shown) [Example 59], the concentration for half-maximal inhibition (IC50) was more than 10 µM.

Take `CCNC(=O)c1cc2c(-c3cc(CNC4CC4)ccc3C)nc(N)nc2s1` [Example 203]: the 50% inhibitory concentration (IC50) was less than 10 µM.

`CCOC(=O)c1cc2c(C(=O)c3ccc(OC)c(OC)c3)nc(N)nc2s1` [Example 310]: the IC50 was less than 10 µM.

With `CCOC(=O)c1cc2c(C(C#N)c3ccc(OC)cc3)nc(N)nc2s1` (stereo not shown) [Example 318], the IC50 was more than 10 µM.

In the case of `CCNC(=O)c1cc2c(-c3cccc(OCCN(CC)CC)c3)nc(N)nc2s1` [Example 260], the half-inhibitory concentration (IC50) is less than 10 µM.

For the molecule `CCNC(=O)c1cc2c(-c3cc(OCCn4ccnc4)c(Cl)cc3Cl)nc(N)nc2s1` [Example 263], the concentration for half-maximal inhibition (IC50) is less than 10 µM.

In the case of `CN1CCCC1CCNC(=O)c1cc2c(-c3ccc(Cl)cc3Cl)nc(N)nc2s1` (stereo not shown) [Example 157], the half-inhibitory concentration (IC50) was less than 10 µM.

On to `CC(C)(NC(=O)c1cc2c(-c3ccc(Cl)cc3Cl)nc(N)nc2s1)c1ccccc1` [Example 140], for which the half-maximal inhibitory concentration (IC50) was less than 10 µM.

As for `CCOC(=O)c1cc2c(C(=O)c3ccccc3)nc(N)nc2s1` [Example 296], the IC50 is less than 10 µM.

In the case of `CCOC(=O)c1cc2c(C(=O)c3cc(C)ccc3C)nc(N)nc2s1` [Example 299], the half-maximal inhibitory concentration (IC50) is less than 10 µM.

For `Nc1nc(-c2ccc(Cl)cc2Cl)c2cc(C(=O)NCc3cccc(C(F)(F)F)c3)sc2n1` [Example 122], the IC50 was less than 10 µM.

For the molecule `CCOC(=O)c1cc2c(C(=O)c3ccccc3Cl)nc(N)nc2s1` [Example 302], the IC50 was less than 10 µM.

Turning to `Nc1nc(-c2ccc(Cl)cc2Cl)c2cc(C(=O)NCc3cccs3)sc2n1` [Example 124], the 50% inhibitory concentration (IC50) was less than 10 µM.

For `CCOC(=O)c1cc2c(-c3ccc(OC(C)C)cc3)nc(N)nc2s1` [Example 5], the IC50 is more than 10 µM.

Turning to `Nc1nc(-c2ccc(Cl)cc2Cl)c2cc(C(=O)NCCc3ccccn3)sc2n1` [Example 156], the half-inhibitory concentration (IC50) is less than 10 µM.

With `CCNC(=O)c1cc2c(-c3cc(OCc4noc(-c5ccccc5OC)n4)c(Cl)cc3Cl)nc(N)nc2s1` [Example 269], the half-inhibitory concentration (IC50) is less than 10 µM.

In the case of `CCOC(=O)c1cc2c(NC(C)c3ccccc3)nc(N)nc2s1` (stereo not shown) [Example 26], the IC50 was more than 10 µM.

Turning to `CCCNC(=O)c1ccc(C)c(-c2nc(N)nc3sc(C(=O)NC4CC4)cc23)c1` [Example 183], the IC50 is less than 10 µM.

On to `CCN(CC)CCOc1cc(-c2nc(N)nc3sc(C(=O)NC(CO)CO)cc23)c(Cl)cc1Cl` [Example 266], for which the IC50 is less than 10 µM.

`Nc1nc(-c2ccccc2)c2cc(C(=O)NCCc3cccs3)sc2n1` [Example 55]: the IC50 was more than 10 µM.

Tested on in the next experiment: not listed separately
Description: Sulforhodamine B (SRB) growth inhibition / growth arrest assay. The format is cell-based. Conditions: activity range. As to the method: A growth inhibition assay was also employed for the evaluation of candidate HSP90 inhibitors:
Assessment of Cytotoxicity by Sulforhodamine B (SRB) Assay: Calculation of 50% Inhibitory Concentration (IC50).
Day 1 • 1) Determine cell number by haemocytometer. • 2) Using an 8 channel multipipettor, add 160 μl of the cell suspension (3600 cells/well or 2×10^4 cells/ml) to each well of a 96-well microtitre plate. • 3) Incubate overnight at 37° C. in a CO2 incubator. Day 2 • 4) Stock solutions of drugs are prepared, and serial dilutions of each drug are performed in medium to give final concentrations in wells. • 5) Using a multipipettor, 40 μl of drug (at 5× final concentration) is added to quadruplicate wells. • 6) Control wells are at either side of the 96 well plates, where 40 μl of medium is added. • 7) Incubate plates in CO2 incubator for 4 days […]. […] Leave for 15 mins. • 12) Wash off unbound SRB stain with four washes of 1% acetic acid. • 13) Dry plates in incubator. • 14) Solubilise SRB using 100 μl of 10 mM Tris base and put plates on plate shaker for 5 mins. • 15) Determine absorbance at 540 nm using a plate reader. Calculate mean absorbance for quadruplicate wells and express as a percentage of value for control, untreated wells. • 16) Plot % absorbance values versus log drug concentration and determine the IC50.
For the molecule `CCOC(=O)c1cc2c(-c3ccc(C(F)(F)F)cc3)nc(N)nc2s1` [Example 2, 2-Amino-4-(4-trifluoromethyl-phenyl)-thieno[2,3-d]pyrimidine-6-carboxylic acid ethyl ester], the half-maximal inhibitory concentration (IC50) is less than 50 µM.

(Values after patent publication US8642594B2, “Substituted thieno[2,3-d]pyrimidines as HSP90 inhibitors” (Vernalis (R&D) Limited, priority 2003, dated 2014).)
